Laboratory results reported in US20240246977A1, “DEGRADATION OF BRUTON'S TYROSINE KINASE (BTK) BY CONJUGATION OF BTK INHIBITORS WITH E3 LIGASE LIGAND AND METHOD OF USE” (BeiGene Switzerland GmbH, priority 2021, published 2024).

Legend:
[1] = biological target: BTK (Homo sapiens, UniProt Q06187); assay: BTK cell degradation in TMD-8 cells, HTRF assay; format: cell-based; parameters: endogenous in cells; host or cells: TMD-8 cells; conditions: 6 h treatment, IC50 (DC50) of BTK degradation
Outline: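 TMD-8 cells treated 6 h with 8-dose series (6-fold dilutions, 0.2% DMSO final), then lysed and BTK quantified by HTRF (337/665/620 nm) after overnight antibody incubation at room temperature. Degradation normalized to DMSO high and low controls; DC50 and Dmax from four-parameter fit.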

[2] = system: HEK-293 cells; assay: HEK-293 cytotoxicity detection (CellTiter-Glo); format: cell-based; conditions: Homo sapiens, 72 h, 72 h incubation, CellTiter-Glo luminescence, read-out: HEK293
Outline: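 HEK-293 cells exposed 72 h to 8 compounds doses (4-fold dilutions, top stock 5 mM at 500×) in 0.2% DMSO. Viability by CellTiter-Glo luminescence; inhibition normalised to DMSO high control and low control, IC50 from four-parameter curve fit.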

Chain of BTK (Q06187 whole entry): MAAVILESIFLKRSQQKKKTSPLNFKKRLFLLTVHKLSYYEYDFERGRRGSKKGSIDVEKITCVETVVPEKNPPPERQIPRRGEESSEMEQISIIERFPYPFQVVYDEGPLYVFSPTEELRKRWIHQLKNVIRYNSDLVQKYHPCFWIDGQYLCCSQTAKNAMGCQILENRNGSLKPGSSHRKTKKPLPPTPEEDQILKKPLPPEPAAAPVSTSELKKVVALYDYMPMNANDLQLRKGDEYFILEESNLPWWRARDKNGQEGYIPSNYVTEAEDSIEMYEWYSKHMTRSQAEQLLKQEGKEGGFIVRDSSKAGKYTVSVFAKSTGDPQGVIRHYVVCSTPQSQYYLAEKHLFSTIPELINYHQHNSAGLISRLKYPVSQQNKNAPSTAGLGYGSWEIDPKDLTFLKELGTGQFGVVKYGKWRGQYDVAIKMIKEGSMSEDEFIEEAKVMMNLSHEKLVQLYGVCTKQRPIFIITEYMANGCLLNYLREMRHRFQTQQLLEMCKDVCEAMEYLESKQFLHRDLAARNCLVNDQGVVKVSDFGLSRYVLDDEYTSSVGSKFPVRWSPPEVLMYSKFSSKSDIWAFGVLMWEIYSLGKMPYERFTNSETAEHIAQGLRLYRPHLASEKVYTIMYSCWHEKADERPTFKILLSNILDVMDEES

Row | DC50 [1] [nM] | SMILES | IC50 [2] [nM]
1 | 4.31 | Cc1cccc(NC(=O)c2ccc(-c3nn4c(c3C(N)=O)Nc3ccc(N5CCN(CC6CCN(c7cc8c(cc7F)CN(C7CCC(=O)NC7=O)C8=O)CC6)CC5)cc3CC4)c(F)c2C)n1 (centres unmarked) [Example B56, 7-(4-((1-(2-(2,6-dioxopiperidin-3-yl)-6-fluoro-3-oxoisoindolin-5-yl)piperidin-4-yl)methyl)piperazin-1-yl)-2-(2-fluoro-3-methyl-4-((6-methylpyridin-2-yl)carbamoyl)phenyl)-9,10-dihydro-4H-benzo[d]pyrazolo[1,5-a][1,3]diazepine-3-carboxamide] | > 10000
2 | 0.526 | Cc1cccc(NC(=O)c2ccc(-c3nn4c(c3C(N)=O)Nc3ccc(N5CCN(C6CN(C7CN(c8ccc9c(c8)C(=O)N(C8CCC(=O)NC8=O)C9=O)C7)C6)CC5)cc3CC4)c(F)c2C)n1 (centres unmarked) [Example B57, 7-(4-(1′-(2-(2,6-dioxopiperidin-3-yl)-1,3-dioxoisoindolin-5-yl)-[1,3′-biazetidin]-3-yl)piperazin-1-yl)-2-(2-fluoro-3-methyl-4-((6-methylpyridin-2-yl)carbamoyl)phenyl)-9,10-dihydro-4H-benzo[d]pyrazolo[1,5-a][1,3]diazepine-3-carboxamide] | > 10000
3 | 2.01 | Cc1cccc(NC(=O)c2ccc(-c3nn4c(c3C(N)=O)Nc3ccc(N5CCN(CC6CCN(c7ccc8c(c7)CN(C7CCC(=O)NC7=O)C8=O)CC6)CC5)cc3CC4)c(F)c2C)n1 (centres unmarked) [Example B58, 7-(4-((1-(2-(2,6-dioxopiperidin-3-yl)-1-oxoisoindolin-5-yl)piperidin-4-yl)methyl)piperazin-1-yl)-2-(2-fluoro-3-methyl-4-((6-methylpyridin-2-yl)carbamoyl)phenyl)-9,10-dihydro-4H-benzo[d]pyrazolo[1,5-a][1,3]diazepine-3-carboxamide] | > 10000
4 | 1.47 | Cc1cccc(NC(=O)c2ccc(-c3nn4c(c3C(N)=O)Nc3ccc(N5CCN(CC6CN(c7ccc(N8CCC(=O)NC8=O)cc7)C6)CC5)cc3CC4)c(F)c2C)n1 [Example B59, 7-(4-((1-(4-(2,4-dioxotetrahydropyrimidin-1(2H)-yl)phenyl)azetidin-3-yl)methyl)piperazin-1-yl)-2-(2-fluoro-3-methyl-4-((6-methylpyridin-2-yl)carbamoyl)phenyl)-9,10-dihydro-4H-benzo[d]pyrazolo[1,5-a][1,3]diazepine-3-carboxamide] | > 10000
5 | 4.97 | Cc1cccc(NC(=O)c2ccc(-c3nn4c(c3C(N)=O)Nc3ccc(N5CCN(Cc6ccc7c(c6)C(C)(C)C(=O)N7C6CCC(=O)NC6=O)CC5)cc3CC4)c(F)c2C)n1 (centres unmarked) [Example B60, 7-(4-((1-(2,6-dioxopiperidin-3-yl)-3,3-dimethyl-2-oxoindolin-5-yl)methyl)piperazin-1-yl)-2-(2-fluoro-3-methyl-4-((6-methylpyridin-2-yl)carbamoyl)phenyl)-9,10-dihydro-4H-benzo[d]pyrazolo[1,5-a][1,3]diazepine-3-carboxamide] | > 10000
6 | 1.7 | Cc1cccc(NC(=O)c2ccc(-c3nn4c(c3C(N)=O)Nc3ccc(N5CCN(CCc6cc(F)c(C7CCC(=O)NC7=O)c(F)c6)CC5)cc3CC4)c(F)c2C)n1 (centres unmarked) [Example B62, 7-(4-(4-(2,6-dioxopiperidin-3-yl)-3,5-difluorophenethyl)piperazin-1-yl)-2-(2-fluoro-3-methyl-4-((6-methylpyridin-2-yl)carbamoyl)phenyl)-9,10-dihydro-4H-benzo[d]pyrazolo[1,5-a] [1,3]diazepine-3-carboxamide] | > 10000
7 | 2.32 | Cc1cccc(NC(=O)c2ccc(-c3nn4c(c3C(N)=O)Nc3ccc(N5CCN(CCc6cc(F)c([C@H]7CCC(=O)NC7=O)c(F)c6)CC5)cc3CC4)c(F)c2C)n1 [Example B63, (R)-7-(4-(4-(2,6-dioxopiperidin-3-yl)-3,5-difluorophenethyl)piperazin-1-yl)-2-(2-fluoro-3-methyl-4-((6-methylpyridin-2-yl)carbamoyl)phenyl)-9,10-dihydro-4H-benzo[d]pyrazolo[1,5-a][1,3]diazepine-3-carboxamide] | > 10000
8 | 4.85 | Cc1cccc(NC(=O)c2ccc(-c3nn4c(c3C(N)=O)Nc3ccc(N5CCN(C6CC(c7ccc(N8CCC(=O)NC8=O)cc7)C6)CC5)cc3CC4)c(F)c2C)n1 (centres unmarked) [Example B64, 7-(4-(3-(4-(2,4-dioxotetrahydropyrimidin-1(2H)-yl)phenyl)cyclobutyl)piperazin-1-yl)-2-(2-fluoro-3-methyl-4-((6-methylpyridin-2-yl)carbamoyl)phenyl)-9,10-dihydro-4H-benzo[d]pyrazolo[1,5-a][1,3]diazepine-3-carboxamide] | > 10000

More lines, now with the values behind:

Row | SMILES | DC50 [1] [nM] | IC50 [2] [nM]
9 | Cc1c(C(=O)Nc2cc(N3CCCC3)ccn2)ccc(-c2nn3c(c2C(N)=O)Nc2ccc(N4CCN(CC5CCN(c6ccc(N7CCC(=O)NC7=O)cc6)CC5)CC4)cc2CC3)c1F [Example B49, 7-(4-((1-(4-(2,4-dioxotetrahydropyrimidin-1(2H)-yl)phenyl)piperidin-4-yl)methyl)piperazin-1-yl)-2-(2-fluoro-3-methyl-4-((4-(pyrrolidin-1-yl)pyridin-2-yl)carbamoyl)phenyl)-9,10-dihydro-4H-benzo[d]pyrazolo[1,5-a][1,3]diazepine-3-carboxamide] | 13.5 | > 10000
10 | COc1ccnc(NC(=O)c2ccc(-c3nn4c(c3C(N)=O)Nc3ccc(N5CCN(CC6CCN(c7ccc(N8CCC(=O)NC8=O)cc7)CC6)CC5)cc3CC4)c(F)c2C)c1 [Example B50, 7-(4-((1-(4-(2,4-dioxotetrahydropyrimidin-1(2H)-yl)phenyl)piperidin-4-yl)methyl)piperazin-1-yl)-2-(2-fluoro-4-((4-methoxypyridin-2-yl)carbamoyl)-3-methylphenyl)-9,10-dihydro-4H-benzo[d]pyrazolo[1,5-a][1,3]diazepine-3-carboxamide] | 2.16 | > 10000
11 | CCOc1ccnc(NC(=O)c2ccc(-c3nn4c(c3C(N)=O)Nc3ccc(N5CCN(CC6CCN(c7ccc(N8CCC(=O)NC8=O)cc7)CC6)CC5)cc3CC4)c(F)c2C)c1 [Example B51, 7-(4-((1-(4-(2,4-dioxotetrahydropyrimidin-1(2H)-yl)phenyl)piperidin-4-yl)methyl)piperazin-1-yl)-2-(4-((4-ethoxypyridin-2-yl)carbamoyl)-2-fluoro-3-methylphenyl)-9,10-dihydro-4H-benzo[d]pyrazolo[1,5-a][1,3]diazepine-3-carboxamide] | 7.39 | 290
12 | Cc1nc(NC(=O)c2ccc(-c3nn4c(c3C(N)=O)Nc3ccc(N5CCN(CC6CCN(c7ccc(N8CCC(=O)NC8=O)cc7)CC6)CC5)nc3CC4)c(F)c2C)ccc1Cl [Example B52, 2-(4-((5-chloro-6-methylpyridin-2-yl)carbamoyl)-2-fluoro-3-methylphenyl)-7-(4-((1-(4-(2,4-dioxotetrahydropyrimidin-1(2H)-yl)phenyl)piperidin-4-yl)methyl)piperazin-1-yl)-9,10-dihydro-4H-pyrazolo[1,5-a]pyrido[3,2-d][1,3]diazepine-3-carboxamide] | 4.06 | > 10000
13 | Cc1nc(NC(=O)c2ccc(-c3nn4c(c3C(N)=O)Nc3ccc(N5CCN(CC6CN(c7ccc(N8CCC(=O)NC8=O)cc7)C6)CC5)cc3CC4)c(F)c2C)ccc1Cl [Example B53, 2-(4-((5-chloro-6-methylpyridin-2-yl)carbamoyl)-2-fluoro-3-methylphenyl)-7-(4-((1-(4-(2,4-dioxotetrahydropyrimidin-1(2H)-yl)phenyl)azetidin-3-yl)methyl)piperazin-1-yl)-9,10-dihydro-4H-benzo[d]pyrazolo[1,5-a][1,3]diazepine-3-carboxamide] | 18.6 | > 10000
14 | Cc1cccc(NC(=O)c2ccc(-c3nn4c(c3C(N)=O)Nc3ccc(N5CCN(CC6CCN(c7ccc(N8CCC(=O)NC8=O)c(C)c7)CC6)CC5)cc3CC4)c(F)c2C)n1 [Example B54, 7-(4-((1-(4-(2,4-dioxotetrahydropyrimidin-1(2H)-yl)-3-methylphenyl)piperidin-4-yl)methyl)piperazin-1-yl)-2-(2-fluoro-3-methyl-4-((6-methylpyridin-2-yl)carbamoyl)phenyl)-9,10-dihydro-4H-benzo[d]pyrazolo[1,5-a][1,3]diazepine-3-carboxamide] | 3.75 | > 10000
15 | Cc1cccc(NC(=O)c2ccc(-c3nn4c(c3C(N)=O)Nc3ccc(N5CCN(CC6CCN(c7cc8c(cc7F)C(=O)N(C7CCC(=O)NC7=O)C8=O)CC6)CC5)cc3CC4)c(F)c2C)n1 (centres unmarked) [Example B55, 7-(4-((1-(2-(2,6-dioxopiperidin-3-yl)-6-fluoro-1,3-dioxoisoindolin-5-yl)piperidin-4-yl)methyl)piperazin-1-yl)-2-(2-fluoro-3-methyl-4-((6-methylpyridin-2-yl)carbamoyl)phenyl)-9,10-dihydro-4H-benzo[d]pyrazolo[1,5-a][1,3]diazepine-3-carboxamide] | 2.42 | > 10000
16 | Cc1cccc(NC(=O)c2ccc(-c3nn4c(c3C(N)=O)Nc3ccc(N5CCN(CCc6cccc7c6oc(=O)n7C6CCC(=O)NC6=O)CC5)cc3CC4)c(F)c2C)n1 (centres unmarked) [Example B61, 7-(4-(2-(3-(2,6-dioxopiperidin-3-yl)-2-oxo-2,3-dihydrobenzo[d]oxazol-7-yl)ethyl)piperazin-1-yl)-2-(2-fluoro-3-methyl-4-((6-methylpyridin-2-yl)carbamoyl)phenyl)-9,10-dihydro-4H-benzo[d]pyrazolo[1,5-a][1,3]diazepine-3-carboxamide] | 1.09 | > 10000
